Results published in US9290768B2, “Engineered microorganisms having resistance to ionic liquids” (priority 2012, dated 2016).

Assays:
[1] = tested on: E. coli expressing the transporter gene; format: cell-based; conditions: ionic liquids at equimolar levels; MFS1-expressing E. coli
Experimental: Top line, MFS/[C2mim]Cl; Second line from top, MFS/C2mim]Oac; Second line from bottom, empty vector//[C2mim]Cl; Bottom, line empty vector/C2mim]Oac
In one experiment, E. coli expressing the transporter gene were also cultured in media differing only in the type of imidazolium ionic liquid (at equimolar levels), to assess the influence of aliphatic chain lengths of the cation, and the anions Cl—, BuSO4-, and acetate.

[2] = tested on: E. coli; assay: Methyl viologen tolerance of E. coli expressing MFS1; format: cell-based; conditions: FIG. 6
Text: Bottom solid lines are empty vector and tetR-mfs.
The closest homologue of MFS1 is a methyl viologen transporter protein in K. oxytoca. MFS1 conferred tolerance to this compound in E. coli (FIG. 6).

[3] = tested on: Enterobacter lignolyticus SCF1; assay: Growth of soil isolate in ionic liquid (IL resistance testing); format: cell-based; conditions: Enterobacter lignolyticus SCF1, tropical rain forest soil isolate
Text: In testing for IL resistance in a tropical rain forest soil community, a bacterium that grows in up to 8% 1-ethyl-3-methylimidazolium chloride ([C2mim]Cl) was isolated. It is a Gram-negative anaerobe that is both lignocellulolytic and halotolerant: Enterobacter lignolyticus SCF1 (DeAngelis, et al., Standards in Genomic Sciences 5:69-85, 2011; Khudyakov, et al., Global transcriptome response to ionic liquid by a tropical rain forest soil bacterium, Enterobacter lignolyticus. Proc. Natl. Acad. Sci USA, 2012). We examined SCF1 to identify genes contributing to IL tolerance using various analyses, including screening an E. coli fosmid library containing SCF1 genomic DNA.

[4] = tested on: E. coli containing an expression plasmid encoding the entire 2.6 kbp insert; assay: Growth of E. coli carrying the 2.6 kbp SCF1 insert at different levels of [C2mim]Cl (shake flask growth assay); format: cell-based; conditions: E. coli clones comprising the mfs1 gene sequence; FIG. 3
Text: FIG. 3 provides data from a 50-ml shake flask growth assay showing the resistance of E. coli containing the 2606 bp region to 4% and 6% [C2mim]Cl. Top panel: lines correspond to E. coli with common sequence; Enterobacter lignolyticus; and E. coli with empty vector; Middle panel (lines designated using hour 6 as a reference point): top line, E. coli with common sequence; middle line, Enterobacter lignolyticus; bottom line, E. coli with empty vector. Bottom panel: top line, E. coli with common sequence; middle line, Enterobacter lignolyticus; bottom line, E. coli with empty vector
SCF1 cells and E. coli containing an expression plasmid encoding the entire 2.6 kbp insert were tested at different levels of [C2mim]Cl.

[5] = tested on: TetR-repressor; assay: MFS1-GFP fusion protein fluorescence (flow-cytometry), induction of repressor; format: cell-based, Enterobacter lignolyticus; conditions: FIG. 5
Experimental: FIG. 5 provides illustrative data showing that [C2mim]Cl-inducible TetR-repressor regulates MFS-expression. […] In the absence of this repressor, the intergenic promoter-region was constitutively turned on (left columns in bar graph compared to right columns).
An SCF1 library was constructed using 30-50 kb genomic DNA inserts in fosmid vectors, and E. coli transformants were plated on 2% [C2mim]Cl for initial selection. GFP-fluorescence was measured by flow-cytometry.
In the absence of this repressor, the intergenic promoter-region was constitutively turned on.

CCCCn1cc[n+](C)c1.[Cl-] [BMIM-Cl, 1-butyl-3-methylimidazolium chloride]
tolerance of E. coli expressing the transporter gene to the ionic liquid [1]: lower tolerance than with EMIM-Cl

CC(=O)[O-].CCn1cc[n+](C)c1 [[C2mim]-Acetate, 1-ethyl-3-methylimidazolium acetate]
tolerance of E. coli expressing the transporter gene to the ionic liquid [1]: confers tolerance

C[n+]1ccc(-c2cc[n+](C)cc2)cc1 [methyl viologen]
tolerance of E. coli conferred by MFS1 [2]: confers tolerance

CCn1cc[n+](C)c1.[Cl-] [[C2mim]Cl, 1-ethyl-3-methylimidazolium chloride]
ionic liquid level in which the bacterium grows [3]: up to 8% | ionic liquid level at which the clones exhibited resistance [4]: at least 6% | induction of the TetR-repressor / regulation of MFS1-expression [5]: inducible
